Test results published in patent US6071932A, “Carbazolypiperines as GABA uptake inhibitors” (British Technology Group Intercorporate Licensing Limited, priority 1995, dated 2000).
Where a name gives a salt, the structure may show the parent alone.

System: GABA uptake
Assay: not given
Conditions: cited from earlier work

| SMILES | inhibition of GABA uptake from the synaptic cleft into presynaptic nerve terminals and glial cells |
| --- | --- |
| O=C(O)C1CCCNC1 (stereo not drawn) [nipecotic acid, 3-piperidinecarboxylic acid] | well-known and potent inhibitor |

System: GABA uptake
Assay: not given
Conditions: oral; Yunger, L. M. et al. 1984; cited from earlier work

| SMILES | orally active inhibition of GABA uptake |
| --- | --- |
| O=C(O)C1CCCN(CCC=C(c2ccccc2)c2ccccc2)C1 (stereo not drawn) [SK&F 89976A, N-(4,4-diphenyl-3-buten-1-yl)nipecotic acid] | orally active inhibitors of GABA uptake |
| O=C(O)C1=CCCN(CCC=C(c2ccccc2)c2ccccc2)C1 [SK&F 100330A, N-(4,4-diphenyl-3-buten-1-yl)guvacine] | orally active inhibitors of GABA uptake |
| O=C(O)CC1CCN(CCC=C(c2ccccc2)c2ccccc2)C1 (stereo not drawn) [SK&F 100561, N-(4,4-diphenyl-3-buten-1-yl)-homo-β-proline] | orally active inhibitors of GABA uptake |
| O=C(O)C1CCCN(CCC=C(c2ccccc2)c2cccs2)C1 (stereo not drawn) [SK&F 100604J, N-(4-phenyl-4-(2-thienyl)-3-buten-1-yl)nipecotic acid] | orally active inhibitors of GABA uptake |

Molecular target: T1, GABA uptake carrier (Rattus norvegicus, UniProt P31647)
T1 construct: A crude membrane preparation was prepared from selected brain areas; from tissue; host or cells: crude membrane (synaptosomal) preparation from selected brain areas
T1 sequence (P31647 1-627): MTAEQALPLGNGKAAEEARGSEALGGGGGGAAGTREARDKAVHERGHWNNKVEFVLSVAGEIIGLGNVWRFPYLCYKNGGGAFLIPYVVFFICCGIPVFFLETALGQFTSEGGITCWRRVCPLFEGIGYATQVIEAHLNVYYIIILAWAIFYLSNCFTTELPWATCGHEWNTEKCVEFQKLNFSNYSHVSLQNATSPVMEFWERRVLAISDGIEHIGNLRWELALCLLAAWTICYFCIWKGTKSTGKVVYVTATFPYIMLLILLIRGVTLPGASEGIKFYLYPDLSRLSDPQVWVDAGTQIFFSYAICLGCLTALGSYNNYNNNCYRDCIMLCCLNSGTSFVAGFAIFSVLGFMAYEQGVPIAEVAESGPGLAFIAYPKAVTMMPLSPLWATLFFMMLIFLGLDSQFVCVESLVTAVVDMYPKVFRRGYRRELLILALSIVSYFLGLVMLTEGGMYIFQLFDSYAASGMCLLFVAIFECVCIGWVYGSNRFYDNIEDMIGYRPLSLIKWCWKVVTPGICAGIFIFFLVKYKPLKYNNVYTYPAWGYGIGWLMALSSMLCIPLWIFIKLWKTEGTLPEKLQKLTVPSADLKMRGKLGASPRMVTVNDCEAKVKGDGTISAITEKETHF
Assay: 3H-GABA uptake in crude brain membrane preparation in presence of NNC 05-0711
Assay type: biochemical
Conditions: NNC 05-0711 1 mM, 0.9 nM 3H-GABA + 25 nM GABA, pH 7.5, 30° C., 8 min, read-out: IC50 (nM) in vitro, Non-GABA uptake carrier mediated uptake of 3H-GABA
Method: ^3 H-GABA uptake was measured by a modification of the method of Fjalland et al., (1978). A crude membrane preparation was prepared from selected brain areas by homogenization in 20 ml of ice-cold 0.32 M sucrose with a hand driven teflon/glass Potter-Elvehjem homogenizer. The homogenate was centrifuged at 4° C. for 10 min. at 1.000×g, and the pellet was discarded. The supernatant was recentrifuged at 4° C. for 20 min. at 20.000×g. The pellet was then homogenized in 50 volumes 0.32 M sucrose. To 300 μl uptake-buffer ([…], 15.3 mM KCl, 6.67 mM MgSO4, 3.83 mM CaCl2, 16.67 mM glucose, 66.67 mM Tris, pH 7.5 at 30° C.) was added 1-(2-(((diphenylmethylene)amino)oxy)ethyl)-1,2,5,6-tetrahydro-3-pyridinecarboxylic acid (NNC 05-0711) (1 mM final concentration), 100 μl test substance and 50 μl tissue suspension. The samples were mixed and incubated at 30° C. for 8 min. Then ^3 H-GABA (0.9 nM final concentration) and unlabelled GABA (25 nM final concentration) was added, and the incubation was continued for an additional 8 min. The reaction was terminated by rapid filtration through Whatman GF/F glass fiber filters under vacuum. The filters were then washed twice in 10 ml of ice-cold isotonic saline, and the tritium trapped on the filters was quantified by conventional scintillation spectroscopy. Non-GABA uptake carrier mediated uptake of ^3 H-GABA was determined in the presence of […].

| SMILES | IC50 |
| --- | --- |
| C[C@@H](CN1CCC(O)(c2ccccc2)CC1)Cn1c2ccccc2c2ccccc21 [Compound 11, (S)-1-((3-(9H-Carbazol-9-yl)-2-methyl)-1-propyl)-4-ph-enylpiperidin-4-ol hydrochloride] | 1480 nM |
| C[C@H](CN1CCC(O)(c2ccccc2)CC1)Cn1c2ccccc2c2ccccc21 [Compound 13, (R)-1-((3-(9H-Carbazol-9-yl)-2-methyl)-1-propyl)-4-phenylpiperidin-4-ol hydrochloride] | 7860 nM |
| CCc1ccc2c(c1)c1ccccc1n2CCCN1CCC(O)(c2ccccc2)CC1 [Compound 16, 1-(3-(3-Ethyl-9H-carbazol-9-yl)-1-propyl)-4-phenylpiperidin-4-ol] | 1700 nM |
| CC(Cl)CC(=O)n1c2ccccc2c2ccccc21 (stereo not drawn) [Compound 23, 1-(9H-Carbazol-9-yl)-3-chlorobutan-1-one] | 3100 nM |
